Several values for one entry are separate records, joined by “and”; a condition that tells them apart may be missing. Identical values can stand only once. Inconclusive results and toxic doses are left out. The calls were made as follows: active = survival T/C of 150% or more; inactive = T/C below 125% in these data.
Test system: P388 leukemia ip, CD2F1 mice, survival T/C
Test: NCI In Vivo Anticancer Drug Screen. Data for tumor model P388 Leukemia (intraperitoneal) in CD2F1 (CDF1) mice
Details: endpoint: median survival time, higher = longer survival
Outline: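 Mice carrying the transplanted tumor received test compound or vehicle. Survival was recorded in each group, and the value is the treated-group measurement divided by that of the vehicle-treated control group.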

[1] = dose: 50.0 mg/kg/injection, schedule: Q01DX005 (ip), vehicle: saline with Tween-80
[2] = dose: 100.0 mg/kg/injection, schedule: Q01DX005 (ip), vehicle: saline with Tween-80
[3] = dose: 200.0 mg/kg/injection, schedule: Q01DX005 (ip), vehicle: saline with Tween-80
[4] = dose: 50.0 mg/kg/injection, schedule: Q01DX005 (ip), vehicle: Klucel (hydroxypropylcellulose) (HPC)
[5] = dose: 100.0 mg/kg/injection, schedule: Q01DX005 (ip), vehicle: Klucel (hydroxypropylcellulose) (HPC)
[6] = dose: 200.0 mg/kg/injection, schedule: Q01DX005 (ip), vehicle: Klucel (hydroxypropylcellulose) (HPC)
[7] = dose: 12.5 mg/kg/injection, schedule: Q04DX002 (ip), vehicle: Klucel (hydroxypropylcellulose) (HPC)
[8] = dose: 25.0 mg/kg/injection, schedule: Q04DX002 (ip), vehicle: Klucel (hydroxypropylcellulose) (HPC)
[9] = dose: 60.0 mg/kg/injection, schedule: Q01DX005 (ip), vehicle: Klucel (hydroxypropylcellulose) (HPC)
[10] = dose: 120.0 mg/kg/injection, schedule: Q01DX005 (ip), vehicle: Klucel (hydroxypropylcellulose) (HPC)
[11] = dose: 60.0 mg/kg/injection, schedule: Q01DX005 (ip), vehicle: saline with Tween-80

Measured: T/C

CCC(C)Sc1nc(N)nc2c1ncn2C1OC(CO)C(O)C1O (stereo unspecified)
inactive: dose: 44.0 mg/kg/injection, schedule: Q01DX009 (ip), vehicle: saline with Tween-80 100 % of control | dose: 66.0 mg/kg/injection, schedule: Q01DX009 (ip), vehicle: saline with Tween-80 100 % of control | dose: 100.0 mg/kg/injection, schedule: Q01DX009 (ip), vehicle: saline with Tween-80 95 % of control | dose: 150.0 mg/kg/injection, schedule: Q01DX009 (ip), vehicle: saline with Tween-80 104 % of control | dose: 176.0 mg/kg/injection, schedule: Q04DX003 (ip), vehicle: saline with Tween-80 114 % of control | dose: 200.0 mg/kg/injection, schedule: Q01DX009 (ip), vehicle: saline with Tween-80 120 % of control | dose: 264.0 mg/kg/injection, schedule: Q04DX003 (ip), vehicle: saline with Tween-80 123 % of control

Nc1n[nH]c(=O)c2cccnc12
inactive: [1] 97 % of control | [2] 99 % of control | [3] 101 % of control

CC(C)CCC(=O)OCCN1CCN(CCCN2c3ccccc3Sc3ccc(C(F)(F)F)cc32)CC1
inactive: dose: 12.5 mg/kg/injection, schedule: Q01DX009 (ip), vehicle: Klucel (hydroxypropylcellulose) (HPC) 114 % of control and 117 % of control | dose: 25.0 mg/kg/injection, schedule: Q01DX009 (ip), vehicle: Klucel (hydroxypropylcellulose) (HPC) 116 % of control

CCN(CC)c1ccc2c(-c3ccccc3C(=O)O)c3ccc(=[N+](CC)CC)cc-3oc2c1
inactive: dose: 5.0 mg/kg/injection, schedule: Q01DX009 (ip), vehicle: saline with Tween-80 104 % of control | dose: 10.0 mg/kg/injection, schedule: Q01DX009 (ip), vehicle: saline with Tween-80 104 % of control | dose: 20.0 mg/kg/injection, schedule: Q01DX009 (ip), vehicle: saline with Tween-80 100 % of control

CSc1nc(N)c(C(=O)Nc2ccc([N+](=O)[O-])cc2)s1
inactive: dose: 50.0 mg/kg/injection, schedule: Q01DX009 (ip), vehicle: Klucel (hydroxypropylcellulose) (HPC) 99 % of control | dose: 100.0 mg/kg/injection, schedule: Q01DX009 (ip), vehicle: Klucel (hydroxypropylcellulose) (HPC) 99 % of control | dose: 200.0 mg/kg/injection, schedule: Q01DX009 (ip), vehicle: Klucel (hydroxypropylcellulose) (HPC) 100 % of control

Nc1nc(C2CCCC2)c(I)c(=O)[nH]1
inactive: [4] 105 % of control | [5] 108 % of control | [6] 92 % of control

O=C1CCCCC1N1C(=O)c2ccccc2C1=O (stereo unspecified)
inactive: dose: 100.0 mg/kg/injection, schedule: Q04DX002 (ip), vehicle: Klucel (hydroxypropylcellulose) (HPC) 101 % of control | dose: 200.0 mg/kg/injection, schedule: Q04DX002 (ip), vehicle: Klucel (hydroxypropylcellulose) (HPC) 97 % of control | dose: 400.0 mg/kg/injection, schedule: Q04DX002 (ip), vehicle: Klucel (hydroxypropylcellulose) (HPC) 97 % of control

CCC(=O)Nc1ccc(N=NN(C)C)cc1
inactive: dose: 6.25 mg/kg/injection, schedule: Q04DX002 (ip), vehicle: Klucel (hydroxypropylcellulose) (HPC) 97 % of control | [7] 106 % of control | [8] 100 % of control and 109 % of control

S=C1SCN(CCc2c[nH]c3ccccc23)CN1CCc1c[nH]c2ccccc12
inactive: [1] 92 % of control | [2] 90 % of control | [3] 92 % of control

CCn1c(C)nc2c(N)cc(C(F)(F)F)cc21 (tested in a mixture with another compound)
inactive: dose: 30.0 mg/kg/injection, schedule: Q01DX005 (ip), vehicle: Klucel (hydroxypropylcellulose) (HPC) 95 % of control | [9] 100 % of control | [10] 99 % of control

O=C1C[C@@H](c2ccccc2)NCCCCN(O)CCCN1
inactive: dose: 25.0 mg/kg/injection, schedule: Q01DX005 (ip), vehicle: saline 106 % of control | dose: 50.0 mg/kg/injection, schedule: Q01DX005 (ip), vehicle: saline 97 % of control | dose: 100.0 mg/kg/injection, schedule: Q01DX005 (ip), vehicle: saline 100 % of control

c1ccc(-c2ccccc2NC2=NCCO2)cc1
inactive: dose: 12.5 mg/kg/injection, schedule: Q01DX009 (ip), vehicle: saline with Tween-80 104 % of control | dose: 25.0 mg/kg/injection, schedule: Q01DX009 (ip), vehicle: saline with Tween-80 104 % of control | dose: 50.0 mg/kg/injection, schedule: Q01DX009 (ip), vehicle: saline with Tween-80 95 % of control

COC(=O)C(C)CN1CCCC1 (stereo unspecified)
inactive: dose: 12.5 mg/kg/injection, schedule: Q04DX003 (ip), vehicle: saline 100 % of control | dose: 25.0 mg/kg/injection, schedule: Q04DX003 (ip), vehicle: saline 100 % of control | dose: 50.0 mg/kg/injection, schedule: Q04DX003 (ip), vehicle: saline 100 % of control

COC(=O)C1c2c(C)cc3n2C(C=C(C)C3)C1C(=O)OC (stereo unspecified)
inactive: dose: 100.0 mg/kg/injection, schedule: Q04DX003 (ip), vehicle: Klucel (hydroxypropylcellulose) (HPC) 100 % of control | dose: 200.0 mg/kg/injection, schedule: Q04DX003 (ip), vehicle: Klucel (hydroxypropylcellulose) (HPC) 105 % of control | dose: 400.0 mg/kg/injection, schedule: Q04DX003 (ip), vehicle: Klucel (hydroxypropylcellulose) (HPC) 95 % of control

COc1ccc(/C=N/NC(=S)NC23CC4CC(CC(C4)C2)C3)cc1OC
inactive: dose: 15.0 mg/kg/injection, schedule: Q01DX005 (ip), vehicle: saline with Tween-80 93 % of control | dose: 30.0 mg/kg/injection, schedule: Q01DX005 (ip), vehicle: saline with Tween-80 89 % of control | [11] 89 % of control

COc1cc(OC)cc(C2OC3=C(Nc4ccc([N+](=O)[O-])cc4N3)C2=O)c1 (stereo unspecified)
inactive: [9] 90 % of control | [10] 90 % of control | dose: 240.0 mg/kg/injection, schedule: Q01DX005 (ip), vehicle: Klucel (hydroxypropylcellulose) (HPC) 90 % of control

O=S(=O)(O)O
inactive: dose: 30.0 mg/kg/injection, schedule: Q01DX009 (ip), vehicle: water 108 % of control | dose: 100.0 mg/kg/injection, schedule: Q01DX009 (ip), vehicle: water 86 % of control

Cc1onc(-c2ccccc2)c1C(C)(O)c1ccccc1 (stereo unspecified)
inactive: dose: 100.0 mg/kg/injection, schedule: Q01DX001 (ip), vehicle: Klucel (hydroxypropylcellulose) (HPC) 90 % of control | dose: 200.0 mg/kg/injection, schedule: Q01DX001 (ip), vehicle: Klucel (hydroxypropylcellulose) (HPC) 93 % of control | dose: 400.0 mg/kg/injection, schedule: Q01DX001 (ip), vehicle: Klucel (hydroxypropylcellulose) (HPC) 88 % of control

NC1(C(=O)O)CCSCC1
inactive: [4] 101 % of control | [5] 102 % of control | [6] 90 % of control

C=CCOc1ccccc1/C(Cl)=N/Nc1ccc([N+](=O)[O-])cc1[N+](=O)[O-]
inactive: dose: 100.0 mg/kg/injection, schedule: Q04DX003 (ip), vehicle: saline with Tween-80 97 % of control | dose: 200.0 mg/kg/injection, schedule: Q04DX003 (ip), vehicle: saline with Tween-80 94 % of control | dose: 400.0 mg/kg/injection, schedule: Q04DX003 (ip), vehicle: saline with Tween-80 89 % of control

N#C/C(C(=S)S)=C(/O)c1ccccc1
inactive: dose: 25.0 mg/kg/injection, schedule: Q01DX009 (ip), vehicle: saline sonified 104 % of control | dose: 50.0 mg/kg/injection, schedule: Q01DX009 (ip), vehicle: saline sonified 109 % of control | dose: 100.0 mg/kg/injection, schedule: Q01DX009 (ip), vehicle: saline sonified 100 % of control

Nc1ccc(C(=O)c2cccs2)cn1
inactive: dose: 50.0 mg/kg/injection, schedule: Q01DX005 (ip), vehicle: distilled water + alcohol 98 % of control | dose: 100.0 mg/kg/injection, schedule: Q01DX005 (ip), vehicle: distilled water + alcohol 104 % of control

C=C(C)CBr
inactive: [11] 100 % of control | dose: 120.0 mg/kg/injection, schedule: Q01DX005 (ip), vehicle: saline with Tween-80 100 % of control | dose: 240.0 mg/kg/injection, schedule: Q01DX005 (ip), vehicle: saline with Tween-80 100 % of control

O=c1cc(O)nc2cn[nH]n12
inactive: dose: 50.0 mg/kg/injection, schedule: Q01DX009 (ip), vehicle: saline 99 % of control | dose: 100.0 mg/kg/injection, schedule: Q01DX009 (ip), vehicle: saline 90 % of control | dose: 200.0 mg/kg/injection, schedule: Q01DX009 (ip), vehicle: saline 101 % of control

CNc1ccc2ccc(N(C)C)cc2n1
inactive: [7] 102 % of control | [8] 97 % of control | dose: 50.0 mg/kg/injection, schedule: Q04DX002 (ip), vehicle: Klucel (hydroxypropylcellulose) (HPC) 101 % of control
